As a reminder, the IC50 is the concentration needed to halve the response being measured. One may read the Ki as the equilibrium dissociation constant of an inhibitor or competing ligand from its target.

One assay addresses T1, Cathepsin K (Homo sapiens, UniProt P43235).
T1 sequence (P43235 whole entry): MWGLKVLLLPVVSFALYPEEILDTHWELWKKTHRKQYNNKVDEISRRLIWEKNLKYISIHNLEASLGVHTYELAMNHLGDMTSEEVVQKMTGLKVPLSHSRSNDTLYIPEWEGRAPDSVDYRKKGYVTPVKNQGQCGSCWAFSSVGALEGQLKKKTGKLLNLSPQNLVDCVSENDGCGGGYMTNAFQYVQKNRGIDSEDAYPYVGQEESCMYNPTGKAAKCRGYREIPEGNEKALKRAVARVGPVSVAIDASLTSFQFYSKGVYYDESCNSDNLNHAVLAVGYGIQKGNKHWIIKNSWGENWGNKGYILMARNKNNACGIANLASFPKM
Description: Inhibitory activity against recombinant human cathepsin K.

For assay [1], the target named is T2, Procathepsin L (Homo sapiens, UniProt P07711). Description: Inhibitory activity against recombinant human cathepsin L.
In a further assay the target is Cathepsin B (Homo sapiens, UniProt P07858). Description: Inhibitory activity against recombinant human cathepsin B.
For the next assay, the species on record is Mus musculus. In words: Inhibitory activity against bone resorption in mouse. In kind it is functional.
The species named for another assay is Homo sapiens. Description: Inhibitory activity against bone resorption in human. Format: functional. The settings on record: Bone element.
Assay [2] has as its target T2, Procathepsin L. In words: Inhibitory activity against recombinant human cathepsin L (1.2 nM).

SMILES strings stand for the structures. Peptide text beside a SMILES is read from it. * marks the point of attachment. Cbz = O=C(OCc1ccccc1)*

T2 sequence (P07711 whole entry): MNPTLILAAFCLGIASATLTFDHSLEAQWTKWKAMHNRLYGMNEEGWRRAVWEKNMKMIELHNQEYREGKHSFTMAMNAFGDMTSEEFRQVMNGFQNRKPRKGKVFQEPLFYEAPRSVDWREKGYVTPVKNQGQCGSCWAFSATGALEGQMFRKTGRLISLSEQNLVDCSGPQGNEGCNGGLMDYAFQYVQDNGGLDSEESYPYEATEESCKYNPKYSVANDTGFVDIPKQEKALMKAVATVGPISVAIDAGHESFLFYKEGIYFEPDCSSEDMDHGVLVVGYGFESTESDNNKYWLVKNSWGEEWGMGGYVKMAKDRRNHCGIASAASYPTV

For `O=C(N[C@H](Cc1ccccc1)C(=O)N[C@@H](CCc1ccccc1)CNc1ccc(N2CCCCC2)cc1)OCc1ccccc1`, the figures for the IC50 at Cathepsin K and at Procathepsin L [1] were 3 nM and 1 nM, respectively. The inhibition constant (Ki) on Cathepsin B was determined as 167 nM.
The corresponding values for `O=C(N[C@H](Cc1ccc(O)cc1)C(=O)N[C@@H](CCc1ccccc1)CNc1ccc(N2CCCCC2)cc1)OCc1ccccc1` are 8 nM, 1 nM and 106 nM.
The matching figures for `O=C(N[C@H](CCc1ccccc1)C(=O)N[C@@H](CCc1ccccc1)CNc1ccc(N2CCCCC2)cc1)OCc1ccccc1`: 14 nM, 9 nM and 9660 nM.
As to `CC(C)C[C@H](NC(=O)OCc1ccccc1)C(=O)N[C@H](CNc1ccc(N2CCOCC2)cc1)Cc1ccccc1`, the IC50 on Cathepsin K is 15 nM; at Procathepsin L [1], 2 nM.
Consider `O=C(CNC(=O)OCc1ccccc1)N[C@@H](CCc1ccccc1)CNc1ccc(N2CCCCC2)cc1`, for which the IC50 at Cathepsin K and on Procathepsin L [1] was greater than 10000 nM in each case. Moreover, the inhibition constant (Ki) at Cathepsin B is greater than 10000 nM.
With `O=C(N[C@@H](CCc1ccccc1)CNc1ccc(N2CCCCC2)cc1)C1CCCN1C(=O)OCc1ccccc1` (stereo not given in full), the values for the 50% inhibitory concentration (IC50) on Cathepsin K and on Procathepsin L [1] were 12 nM and 7840 nM, respectively. At Cathepsin B, the Ki is greater than 10000 nM.
On to `CC(C)[C@@H](NC(=O)OCc1ccccc1)C(=O)N[C@@H](CCc1ccccc1)CNc1ccc(N2CCCCC2)cc1`, for which the half-inhibitory concentration (IC50) was determined as 4 nM at Cathepsin K, 1 nM at Procathepsin L [1], 330 nM in the assay listed under Mus musculus and 560 nM in the assay filed under Homo sapiens. Further, on Cathepsin B, the Ki was 7 nM.
As to `CC(C)C[C@H](NC(=O)OCc1ccccc1)C(=O)N[C@H](CNc1ccc(-c2ccccc2)cc1)Cc1ccccc1`, the half-inhibitory concentration (IC50) on Cathepsin K was found to be 706 nM; at Procathepsin L [1] it was 32 nM.
In the case of `CSCC[C@@H](NC(=O)OCc1ccccc1)C(=O)N[C@@H](CCc1ccccc1)CNc1ccc(N2CCCCC2)cc1`, the IC50 on Cathepsin K was 3 nM; on Procathepsin L [1], 36 nM. Besides, the Ki on Cathepsin B came out at 12 nM.
In the case of `C[C@@H](NC(=O)OCc1ccccc1)C(=O)N[C@@H](CCc1ccccc1)CNc1ccc(N2CCCCC2)cc1`, the concentration for half-maximal inhibition (IC50) on Cathepsin K was determined as 9 nM; at Procathepsin L [1], 4110 nM. Further, the inhibition constant Ki on Cathepsin B turned out to be 2090 nM.
With `CC(C)C[C@H](NC(=O)OCc1ccccc1)C(=O)N[C@H](CNc1ccc(N2CCCCC2)cc1)Cc1ccccc1`, the IC50 stood at 10 nM on Cathepsin K, 2 nM at Procathepsin L [1], 1000 nM in the assay listed under Mus musculus and 1000 nM in the assay filed under Homo sapiens.
As for `O=C(N[C@H](CC1C=Nc2ccccc21)C(=O)N[C@@H](CCc1ccccc1)CNc1ccc(N2CCCCC2)cc1)OCc1ccccc1` (stereo not given in full), the values for the IC50 on Cathepsin K and on Procathepsin L [1] were 48 nM and 1 nM, respectively. Also, at Cathepsin B, the Ki was determined as 3360 nM.
The matching figures for `CC(C)C[C@@H](NC(=O)OCc1ccccc1)C(=O)N[C@@H](CCc1ccccc1)CNc1ccc(N2CCCCC2)cc1`: 5 nM, 2 nM and 658 nM.
In the case of `CC(C)C[C@H](NC(=O)OCc1ccccc1)C(=O)N[C@H](CNc1ccccc1)Cc1ccccc1`, the IC50 on Cathepsin K is 1100 nM; on Procathepsin L [1], 230 nM.
For the compound `CSCC[C@@H](C=O)NC(=O)[C@H](CC(C)C)NC(=O)OCc1ccccc1` (Cbz-Leu-Met-aldehyde), the IC50 amounted to 1.3 nM at Procathepsin L [1] and 5 nM at Procathepsin L [2].
For the compound `CC(C)C[C@H](NC(=O)OCc1ccccc1)C(=O)N[C@H](C=O)Cc1ccccc1` (Cbz-Leu-Phe-aldehyde), the concentration for half-maximal inhibition (IC50) on Procathepsin L [1] is 20 nM.

These data come from ChEMBL document CHEMBL1146716, “(4-Piperidinylphenyl)aminoethyl amides as a novel class of non-covalent cathepsin K inhibitors” (Bioorg Med Chem Lett, 2004).
